Source: US20260250290A1 (BRISTOL-MYERS SQUIBB COMPANY, priority 2023, published 2026)
pIC50: −log10 of the molar value. Structures can show the parent of a compound that is named as a salt.

Molecular target: T1, SGK1 (Homo sapiens, UniProt O00141)
T1 sequence (O00141 1-431): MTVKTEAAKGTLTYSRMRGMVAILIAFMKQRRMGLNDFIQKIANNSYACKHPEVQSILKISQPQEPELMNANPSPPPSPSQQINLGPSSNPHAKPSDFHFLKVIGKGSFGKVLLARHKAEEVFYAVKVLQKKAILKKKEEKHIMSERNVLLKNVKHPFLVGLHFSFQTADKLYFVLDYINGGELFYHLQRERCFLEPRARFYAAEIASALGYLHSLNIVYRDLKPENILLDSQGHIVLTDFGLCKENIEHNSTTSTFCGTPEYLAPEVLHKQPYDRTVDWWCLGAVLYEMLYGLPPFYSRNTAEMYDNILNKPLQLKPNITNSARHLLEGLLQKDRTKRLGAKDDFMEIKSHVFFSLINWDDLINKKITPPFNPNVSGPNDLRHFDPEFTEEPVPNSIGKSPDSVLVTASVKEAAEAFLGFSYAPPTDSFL
Experiment: SGK1 inhibition Assay B (Echo mass spectrometry of phosphorylated peptide product)
Assay type: biochemical
Details: 60 min at room temperature
Protocol: 20 μl of 2 nM SGK1 were added in 20 mM Hepes+10 mM MgCl2+0015% Brij-35+4 mM DTT+0.05 mg/ml BSA and the reaction incubated for 60 min at room temperature. The enzymatic reaction was quenched by addition 10 μl of 1% Formic Acid+150 nM Internal Standard: FITC-(Ahx)KKRNRR(pS)VA^—OH (final concentration). The plates are spun down at 3700 RPM for 10 minutes to remove all precipitate. Samples were loaded on to the Sciex Echo Mass Spec attached to a Sciex 6500 equipped with ESI and was used to analyze the phosphorylated peptide product. MRM transition of product and internal standard were monitored at m/z 755 to 937.5 and m/z 757.7 to 941.3 respectively. Peak area of analyte was normalized with internal standard.
Dose response curves were generated to determine the concentration required for inhibiting 50% of the enzyme activity. Compounds were dissolved at 10 mM in dimethylsulfoxide (DMSO) and evaluated at eleven concentrations.

| pIC50 | Compound |
| --- | --- |
| 8.70 | CC(=O)N1CC=C(c2cc(N3CCC[C@@H](NC(=O)c4sc(Cl)cc4OC4C[C@@H]5CN(C)C[C@@H]5C4)C3)c3c(N)ncnn23)C1 (stereo partly drawn) [Example 958, N—((R)-1-(7-(1-acetyl-2,5-dihydro-1H-pyrrol-3-yl)-4-aminopyrrolo[2,1-f][1,2,4]triazin-5-yl)piperidin-3-yl)-5-chloro-3-(((3aR,6aS)-2-methyloctahydrocyclopenta[c]pyrrol-5-yl)oxy) thiophene-2-carboxamide] |
| 8.15 | CN1[C@@H]2CC[C@H]1C[C@H](Oc1cc(Cl)sc1C(=O)N[C@@H]1CCCN(c3cc(-c4ccnn4C)n4ncnc(N)c34)C1)C2 [Example 975, N—((R)-1-(4-amino-7-(1-methyl-1H-pyrazol-5-yl)pyrrolo[2,1-f][1,2,4]triazin-5-yl)piperidin-3-yl)-5-chloro-3-(((1R,3s,5S)-8-methyl-8-azabicyclo[3.2.1]octan-3-yl)oxy)thiophene-2-carboxamide] |
| 8.70 | CC(C)N1[C@@H]2CCC[C@H]1C[C@H](Oc1cc(Cl)sc1C(=O)N[C@@H]1CCCN(c3cc(-c4cc(F)c(=O)n(CC(F)F)c4)n4ncnc(N)c34)C1)C2 [Example 968, N—((R)-1-(4-amino-7-(1-(2,2-difluoroethyl)-5-fluoro-6-oxo-1,6-dihydropyridin-3-yl)pyrrolo[2,1-f][1,2,4]triazin-5-yl)piperidin-3-yl)-5-chloro-3-(((1R,3s,5S)-9-isopropyl-9-azabicyclo[3.3.1]nonan-3-yl)oxy)thiophene-2-carboxamide] |
| 9.05 | [2H]C([2H])([2H])N([C@H]1CC[C@@H](Oc2nc(C)sc2C(=O)N[C@@H]2CCCN(c3cc(C4=CC(=O)OC4)n4ncnc(N)c34)C2)CC1)C([2H])([2H])[2H] [Example 1004, N—((R)-1-(4-amino-7-(5-oxo-2,5-dihydrofuran-3-yl)pyrrolo[2,1-f][1,2,4]triazin-5-yl)piperidin-3-yl)-4-(((1S,4S)-4-(bis(methyl-d3)amino)cyclohexyl)oxy)-2-methylthiazole-5-carboxamide] |
| 7.92 | CN1CCN(c2nccc(C(=O)N[C@@H]3CCCN(c4cc(-c5cc(F)c(-n6cnnn6)cc5F)n5ncnc(N)c45)C3)n2)CC1 [Example 853, (R)-N-(1-(4-amino-7-(2,5-difluoro-4-(1H-tetrazol-1-yl)phenyl)pyrrolo[2,1-f][1,2,4]triazin-5-yl)piperidin-3-y1)-2-(4-methylpiperazin-1-yl)pyrimidine-4-carboxamide] |
| 7.80 | CN1CCN(c2nccc(C(=O)N[C@@H]3CCCN(c4cc(-c5cnc(-n6cnnn6)nc5)n5ncnc(N)c45)C3)n2)CC1 [Example 856, (R)-N-(1-(7-(2-(1H-tetrazol-1-yl)pyrimidin-5-yl)-4-aminopyrrolo[2,1-f][1,2,4]triazin-5-yl)piperidin-3-yl)-2-(4-methylpiperazin-1-yl)pyrimidine-4-carboxamide] |
| 9.00 | [2H]C([2H])([2H])c1nc(O[C@H]2CC[C@@H](N(C)C)CC2)c(C(=O)N[C@@H]2CCCN(c3cc(C4=C(C)C(=O)OC4)n4ncnc(N)c34)C2)s1 [Example 1016, N—((R)-1-(4-amino-7-(4-methyl-5-oxo-2,5-dihydrofuran-3-yl)pyrrolo[2,1-f][1,2,4]triazin-5-yl)piperidin-3-yl)-4-(((1S,4S)-4-(dimethylamino)cyclohexyl)oxy)-2-(methyl-d3)thiazole-5-carboxamide] |
| 9.00 | Cc1nc(O[C@@H]2C[C@H]3CC[C@@H](C2)N3C2CC(O)C2)c(C(=O)N[C@@H]2CCCN(c3cc(-c4ccc(-n5cnnn5)c(F)c4)n4ncnc(N)c34)C2)s1 (stereo partly drawn) [Example 929, N—((R)-1-(4-amino-7-(3-fluoro-4-(1H-tetrazol-1-yl)phenyl)pyrrolo[2,1-f][11,2,4]triazin-5-yl)piperidin-3-yl)-4-(((1R,3s,5S)-8-(3-hydroxycyclobutyl)-8-azabicyclo[3.2.1]octan-3-yl)oxy)-2-methylthiazole-5-carboxamide TFA salt] |
| 8.72 | Cc1nc(OC2CCC(N3CCC3)CC2)c(C(=O)N[C@@H]2CCCN(c3cc(C#N)n4ncnc(N)c34)C2)s1 (stereo partly drawn) [Example 1049, (R)—N-(1-(4-amino-7-cyanopyrrolo[2,1-f][1,2,4]triazin-5-yl)piperidin-3-yl)-4-((4-(azetidin-1-yl)cyclohexyl)oxy)-2-methylthiazole-5-carboxamide] |
| 6.87 | CN1CCN(c2cccc(C(=O)N[C@@H]3CCCN(c4cc(-c5ccc6[nH]ncc6c5)n5ncnc(N)c45)C3)n2)CC1 [Example 806, (R)-N-(1-(4-amino-7-(1H-indazol-5-yl)pyrrolo[2,1-f][1,2,4]triazin-5-yl)piperidin-3-yl)-6-(4-methylpiperazin-1-yl)picolinamide] |
| 6.84 | CCOC1=C(C(=O)N[C@@H]2CCCN(c3cc(C4=CCN(C(C)=O)C4)n4ncnc(N)c34)C2)CN(c2ccccc2)C1=O [Example 758, (R)-N-(1-(7-(1-acetyl-2,5-dihydro-1H-pyrrol-3-yl)-4-aminopyrrolo[2,1-f][1,2,4]triazin-5-yl)piperidin-3-yl)-4-ethoxy-5-oxo-1-phenyl-2,5-dihydro-1H-pyrrole-3-carboxamide, TFA salt] |
| 9.00 | Cc1nc(O[C@@H]2C[C@H]3CC[C@@H](C2)N3CCO)c(C(=O)N[C@@H]2CCCN(c3cc(-c4ccc(-n5cnnn5)c(F)c4)n4ncnc(N)c34)C2)s1 [Example 960, N—((R)-1-(4-amino-7-(3-fluoro-4-(1H-tetrazol-1-yl)phenyl)pyrrolo[2,1-f][1,2,4]triazin-5-yl)piperidin-3-yl)-4-(((1R,3s,5S)-8-(2-hydroxyethyl)-8-azabicyclo [3.2.1]octan-3-yl)oxy)-2-methylthiazole-5-carboxamide] |
| 8.70 | Cc1nc(OC2CCC(N3CCC3)CC2)c(C(=O)N[C@@H]2CCCN(c3cc(-c4ccc(C(N)=O)c(F)c4)n4ncnc(N)c34)C2)s1 (single isomer, unassigned) [Example 943] |
| 8.52 | Cc1cc(O[C@@H]2C[C@H]3CC[C@@H](C2)N3C)c(C(=O)N[C@@H]2CCCN(c3cc(-c4cnc(-n5cnnn5)c(F)c4)n4ncnc(N)c34)C2)s1 [Example 845, N-((R)-1-(4-amino-7-(5-fluoro-6-(1H-tetrazol-1-yl)pyridin-3-yl)pyrrolo[2,1-f][1,2,4]triazin-5-yl)piperidin-3-yl)-5-methyl-3-(((1R,3s,5S)-8-methyl-8-azabicyclo[3.2.1]octan-3-yl)oxy)thiophene-2-carboxamide, TFA salt] |
| 7.80 | CC(=O)c1ccc(-c2cc(N3CCC[C@@H](NC(=O)c4sc(C)cc4O[C@@H]4C[C@H]5CC[C@@H](C4)N5C)C3)c3c(N)ncnn23)cn1 [Example 846, N-((R)-1-(7-(6-acetylpyridin-3-yl)-4-aminopyrrolo[2,1-f][1,2,4]triazin-5-yl)piperidin-3-yl)-5-methyl-3-(((1R,3s,5S)-8-methyl-8-azabicyclo[3.2.1]octan-3-yl)oxy)thiophene-2-carboxamide] |
| 8.22 | Cc1cc(O[C@@H]2C[C@H]3CC[C@@H](C2)N3C)c(C(=O)N[C@@H]2CCCN(c3cc(-c4cnn(C(F)F)c4)n4ncnc(N)c34)C2)s1 [Example 848, N-((R)-1-(4-amino-7-(1-(difluoromethyl)-1H-pyrazol-4-yl)pyrrolo[2,1-f][1,2,4]triazin-5-yl)piperidin-3-yl)-5-methyl-3-(((1R,3s,5S)-8-methyl-8-azabicyclo[3.2.1]octan-3-yl)oxy)thiophene-2-carboxamide, TFA salt] |
| 7.35 | CN1CCN(c2cccc(C(=O)N[C@@H]3CCCN(c4cc(-c5ccc(F)c(F)c5)n5ncnc(N)c45)C3)n2)CC1 [Example 811, (R)-N-(1-(4-amino-7-(3,4-difluorophenyl)pyrrolo[2,1-f][1,2,4]triazin-5-yl)piperidin-3-yl)-6-(4-methylpiperazin-1-yl)picolinamide] |
| 9.00 | CC(=O)N1CC=C(c2cc(N3CCC[C@@H](NC(=O)c4cc5[nH]ccc5s4)C3)c3c(N)ncnn23)C1 [Example 923, (R)—N-(1-(7-(1-acetyl-2,5-dihydro-1H-pyrrol-3-yl)-4-aminopyrrolo[2,1-f][1,2,4]triazin-5-yl)piperidin-3-yl)-4H-thieno[3,2-b]pyrrole-2-carboxamide] |

| Compound | pIC50 |
| --- | --- |
| COc1cc(-c2cc(N3CCC[C@@H](NC(=O)c4ccnc(N5CCN(C)CC5)n4)C3)c3c(N)ncnn23)ccc1-n1cnnn1 [Example 855, (R)-N-(1-(4-amino-7-(3-methoxy-4-(1H-tetrazol-1-yl)phenyl)pyrrolo[2,1-f][1,2,4]triazin-5-yl)piperidin-3-yl)-2-(4-methylpiperazin-1-yl)pyrimidine-4-carboxamide] | 7.85 |
| CC(C)N1CC2(CN(c3cccc(C(=O)N[C@@H]4CCCN(c5cc(-c6ccc(C#N)nc6)n6ncnc(N)c56)C4)n3)C2)C1 [Example 817, (R)-N-(1-(4-amino-7-(6-cyanopyridin-3-yl)pyrrolo[2,1-f][1,2,4]triazin-5-yl)piperidin-3-yl)-6-(6-isopropyl-2,6-diazaspiro[3.3]heptan-2-yl)picolinamide] | 7.85 |
| CC(C)N1CC2(CN(c3cccc(C(=O)N[C@@H]4CCCN(c5cc(-c6cc(F)c(-n7cnnn7)c(F)c6)n6ncnc(N)c56)C4)n3)C2)C1 [Example 826, (R)-N-(1-(4-amino-7-(3,5-difluoro-4-(1H-tetrazol-1-yl)phenyl)pyrrolo[2,1-f][1,2,4]triazin-5-yl)piperidin-3-yl)-6-(6-isopropyl-2,6-diazaspiro[3.3]heptan-2-yl)picolinamide] | 8.52 |
